Measured values as given in US10081629B2, “Amide derivatives and pharmaceutically acceptable salts thereof, preparation method thereof and medicinal application thereof” (Shanghai Hengrui Pharmaceutical Co., Ltd., priority 2014, dated 2018).

Key:
[1] = system: secretion of PGE2 by A549 cells stimulated with IL-1β; assay: Inhibition of the secretion of PGE2 by A549 cells stimulated with IL-1β; format: cell-based; details: Homo sapiens, A549; IL-1β 0.2 ng/mL, 24 hours
Source text: The method described here was used for determining the inhibition activity of the present compounds on the secretion of PGE2 by A549 cells stimulated with IL-1β.
• 1. PGE2 Assay kit (Cisbio, #62P2APEB) • 2. IL-1β (Peprotech, # AF-200-01B) • 3. Cell line: A549 (ATCC: CCL-185) • 4. FlexStation3 microplate reader. II. Experimental Procedure
On the first day, A549 cells were inoculated in a 96-well plate at 40000/well. On the second day, the culture medium in the 96-well plate was removed and then added with 90 μL of compound diluted with culture medium (the concentration of each compound at seven gradient concentrations was 11111 nM, […], 1.11 nM, 0.11 nM and 0.011 nM). The cells were incubated for 30 minutes at 37° C. in an incubator, and then added with IL-1β to a final concentration of 0.2 ng/mL. Then, the cells were incubated for another 24 hours at 37° C. On the third day, 10 μl of supernatant, 5 μL of PGE2-d2 and 5 μL of anti-PGE2 Cryptate were added into a black 384-well plate, and then incubated at 4° C. overnight. HTRF was determined using Flexstation, and the IC50 of the compounds was obtained by data processing software.
The inhibition activity of the present compounds on the secretion of PGE2 by A549 cells stimulated with IL-1β was determined by the assay described above.

[2] = Pharmacokinetics assay in rats; format: in vivo; details: both sexes, Sprague-Dawley, rat, plasma, po, SD rats, intragastric, 5 mg/kg; for Vd/F: read-out: Apparent Distribution Volume Vz/F; for AUC: read-out: Area Under Curve AUC; for CL/F: read-out: Clearance CLz/F; for half-life: read-out: Half-Life T½ (converted); for MRT: read-out: Mean Residence Time MRT; for Cmax: read-out: Plasma Conc. Cmax
Description: Rats were used as test animals. The drug concentration in plasma at different time points was determined by LC/MS/MS after administration of the compounds of Example 8, Example 11, Example 14, Example 17, Example 20, Example 27, Example 33, Example 35, Example 36, Example 37 and Example 48 to rats. The pharmacokinetic behavior of the present compounds was studied and evaluated in rats.
Forty four (44) healthy adult Sprague-Dawley (SD) rats, half male and half female, which were purchased from SINO-BRITSH SIPPR/BK LAB. ANIMAL LTD., CO, with Certificate No.: SCXK (Shanghai) 2008-0016, were divided into 11 groups, with 4 rats in each group.
The appropriate amount of test compounds was weighed, and mixed with 25 μL Tween 80 and Labrasol to prepare a 0.6 mg/mL suspension by ultrasonication.
After an overnight fast, 44 SD rats, half male and half female, were divided into 11 groups, and administered intragastrically at a dose of 5.0 mg/kg and an administration volume of 10 mL/kg.
Blood (0.1 mL) was sampled from the orbital sinus before administration and 0.5 h, 1.0 h, 2.0 h, 4.0 h, 6.0 h, 8.0 h, 11.0 h, and 24.0 h after administration. The samples were stored in EDTA anticoagulation tubes, and centrifuged for 5 minutes at 3,500 rpm to separate the blood plasma. The plasma samples were stored at −20° C. The rats were fed 2 hours after administration.
The plasma concentration of the test compounds in rat after intragastric administration was determined by LC-MS/MS. The linearity of the method is 5.00-2000 ng/mL and 1.00-2000 ng/ml, and the minimum of quantification is 5.00 ng/mL and 1.00 ng/mL.
Plasma samples were analyzed after pretreatment by protein precipitation.

human mPGES1 = human mPGES1 (Homo sapiens (Human), UniProt O14684); assay: Inhibition activity for human mPGES1 (enzyme assay, PGE2 HTRF); format: biochemical; details: membrane protein from HEK-293 F transfected with human mPGES1
human mPGES1, sequence (O14684 whole entry): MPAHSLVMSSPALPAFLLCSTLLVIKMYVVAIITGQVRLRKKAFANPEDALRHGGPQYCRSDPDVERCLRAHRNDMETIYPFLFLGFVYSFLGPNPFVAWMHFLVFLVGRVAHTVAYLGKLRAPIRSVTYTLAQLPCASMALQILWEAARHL
Description: The method described here is used for determining the inhibition activity of the present compounds for human mPGES1.
• 1. PGE2 Assay kit (Cisbio, #62P2APEB) • 2. Prostaglandin H2 (Sigma, #P7867-1MG) • 3. FlexStation3 microplate reader. II. Experimental Procedure • 1. Obtaining the membrane proteins of mPGES1 enzyme
The cell density of HEK-293 F was grown to 6×10^5 per milliliter and was transferred with the plasmid containing human mPGES1 gene by transfection reagent PEI the next day. The cells were continuously cultured for 72 hours at 37° C. with shaking. After centrifuging at 1100 g for 5 minutes, the cells were harvested. After ultrasonication in an ice bath and centrifugation at 5000 g for 10 minutes, the supernatant was obtained. The supernatant was centrifuged at 100000 g for 1 hour to obtain a precipitate. The precipitate was resuspended with storage buffer containing 10% glycerinum, subpackaged and frozen rapidly under liquid nitrogen, and stored at −80° C. • 2. mPGES1 enzyme assay
mPGES1 was diluted with assay buffer and added into plate at 49 μL/well supplemented with 1 μL of compound (the final concentration of each compound at seven gradient concentrations was 10000 nM, 1000 nM, 100 nM, 10 nM, 1 nM, 0.1 nM and 0.01 nM). […] Then, each well was added with 53.8 μL of 6 mg/mL SnCl2 to quench the reaction. The sample was diluted with dilute buffer at 1:400. 10 μl of diluted sample, 5 μL PGE2-d2 and 5 μL anti-PGE2 Cryptate were added to a black 384-well plate, and incubated at 4° C. overnight. HTRF was determined using Flexstation, and the IC50 of the compounds was obtained by data processing software.
The inhibition activity of the present compounds on mPGES1 was tested by the assay described above.

Row | Compound | IC50 [1] | Vd/F [2] | AUC [2] | CL/F [2] | half-life [2] | MRT [2] | Cmax [2] | IC50 (human mPGES1)
1 | CCn1c(-c2ccc(C(F)(F)F)cc2)cc2cc(NC(=O)c3cc(CNC(=O)C(C)(C)F)cnc3C(F)F)ccc21 [Example 17, 2-(Difluoromethyl)-N-(1-ethyl-2-(4-(trifluoromethyl)phenyl)-1H-indol-5-yl)-5-(((2-fluoro-2-methyl-propanoyl)amino)methyl)nicotinamide] | 12.1 nM | 20.2 ± 2.6 L/kg | 2000 ± 650 ng·h/mL | 45.3 ± 15.3 mL/min/kg | 5.44 ± 1.23 h | 10.4 ± 1.9 h | 155 ± 26 ng/mL | 2.68 nM
2 | Cn1c(-c2cccc(Cl)c2)cc2nc(NC(=O)c3cc(CNC(=O)C(C)(C)F)cnc3C(F)F)ccc21 [Example 35, N-(2-(3-Chlorophenyl)-1-methyl-1H-pyrrolo[3,2-b]pyridin-5-yl)-2-(difluoromethyl)-5-(((2-fluoro-2-methyl-propanoyl)amino)methyl)nicotinamide] | 31.6 nM | 1.85 ± 0.576 L/kg | 37400 ± 36700 ng·h/mL | 4.69 ± 3.72 mL/min/kg | 11.3 ± 14.5 h | 18.8 ± 20.6 h | 1510 ± 517 ng/mL | 4.07 nM
3 | CC(C)(F)C(=O)NCc1cnc(C(F)F)c(C(=O)Nc2ccc3c(c2)C(=O)N(c2cccc(C(F)(F)F)c2)C3)c1 [Example 59, 2-(Difluoromethyl)-5-(((2-fluoro-2-methyl-propanoyl)amino)methyl)-N-(3-oxo-2-(3-(trifluoromethyl)phenyl)isoindolin-5-yl)nicotinamide] | 20.5 nM |  |  |  |  |  |  | 1.18 nM
4 | CCn1c(-c2ccccc2Cl)cc2cc(NC(=O)c3cc(CNC(=O)C(C)(C)F)cnc3C(F)F)ccc21 [Example 19, N-(2-(2-Chlorophenyl)-1-ethyl-1H-indol-5-yl)-2-(difluoromethyl)-5-(((2-fluoro-2-methyl-propanoyl)amino)methyl)nicotinamide] | 42.6 nM |  |  |  |  |  |  | 8.12 nM
5 | CC(C)C(=O)NCc1cnc(C(F)F)c(C(=O)Nc2ccc3oc(-c4ccc(Cl)cc4)nc3c2)c1 [Example 45, N-(2-(4-Chlorophenyl)benzo[d]oxazol-5-yl)-2-(difluoromethyl)-5-((2-methylpropanoylamino)methyl)nicotinamide] | 25.9 nM |  |  |  |  |  |  | 49.4 nM
6 | CC(C)C(=O)NCc1cnc(C(F)F)c(C(=O)Nc2ccc3nn(-c4ccc(C(F)(F)F)cc4)cc3c2)c1 [Example 24, 2-(Difluoromethyl)-5-((2-methylpropanoylamino)methyl)-N-(2-(4-(trifluoromethyl)phenyl)-2H-indazol-5-yl)nicotinamide] | 45.6 nM |  |  |  |  |  |  | 17.2 nM
7 | CC(C)(F)C(=O)NCc1cnc(C(F)F)c(C(=O)Nc2ccc3c(c2)cc(-c2ccc(Cl)cc2)n3[C@@H]2CCOC2)c1 [Example 47, (R)-N-(2-(4-Chlorophenyl)-1-(tetrahydrofuran-3-yl)-1H-indol-5-yl)-2-(difluoromethyl)-5-(((2-fluoro-2-methyl-propanoyl)amino)methyl)nicotinamide] | 18.9 nM |  |  |  |  |  |  | 5.72 nM
8 | CC(C)(F)C(=O)NCc1cnc(C(F)F)c(C(=O)Nc2ccc3c(c2)cc(-c2ccc(Cl)cc2)n3[C@H]2CCOC2)c1 [Example 46, (S)-N-(2-(4-Chlorophenyl)-1-(tetrahydrofuran-3-yl)-1H-indol-5-yl)-2-(difluoromethyl)-5-(((2-fluoro-2-methyl-propanoyl)amino)methyl)nicotinamide] | 24.7 nM |  |  |  |  |  |  | 2.71 nM
9 | CCn1c(-c2ccc(Cl)cc2)cc2cc(NC(=O)c3cc(CNC(=O)C(C)C)cnc3C(F)F)ccc21 [Example 10, 2-(Difluoromethyl)-N-(1-ethyl-2-(4-chlorophenyl)-1H-indol-5-yl)-5-((2-methylpropanoylamino)methyl)nicotinamide] | 12.3 nM |  |  |  |  |  |  | 11.2 nM
10 | CC(C)C(=O)NCc1cnc(C(F)F)c(C(=O)Nc2ccc3nc(-c4ccc(C(F)(F)F)cc4)sc3c2)c1 [Example 54, 2-(Difluoromethyl)-5-((2-methylpropanoylamino)methyl)-N-(2-(4-(trifluoromethyl)phenyl)benzo[d]thiazol-6-yl)nicotinamide] | 58.5 nM |  |  |  |  |  |  | 47.1 nM
11 | CC(C)(C)C(=O)NCc1ccc(Cl)c(C(=O)Nc2ccc3c(c2)CN(c2ccc(C(F)(F)F)cc2)C3)c1 [Example 25, 2-Chloro-5-((2,2-dimethylpropanoylamino)methyl)-N-(2-(4-(trifluoromethyl)phenyl)isoindolin-5-yl)benzamide] | 47.6 nM |  |  |  |  |  |  | 11.9 nM
12 | CC(C)C(=O)NCc1cnc(C(F)F)c(C(=O)Nc2ccc3oc(-c4ccc(C(F)(F)F)cc4)nc3c2)c1 [Example 38, 2-(Difluoromethyl)-5-((2-methylpropanoylamino)methyl)-N-(2-(4-(trifluoromethyl)phenyl)benzo[d]oxazol-5-yl)nicotinamide] | 42.9 nM |  |  |  |  |  |  | 5.43 nM
13 | CC(C)(C)C(=O)NCc1ccc(Cl)c(C(=O)Nc2ccc3nn(-c4ccc(Cl)cc4)cc3c2)c1 [Example 16, 2-Chloro-N-(2-(4-chlorophenyl)-2H-indazol-5-yl)-5-((2,2-dimethylpropanoylamino)methyl)benzamide] | 26.2 nM |  |  |  |  |  |  | 9.31 nM
14 | Cn1c(-c2ccc(C(F)(F)F)cc2)cc2cc(NC(=O)c3cc(CNC(=O)C(C)(C)F)cnc3C(F)F)ccc21 [Example 15, 2-(Difluoromethyl)-5-(((2-fluoro-2-methyl-propanoyl)amino)methyl)-N-(1-methyl-2-(4-(trifluoromethyl)phenyl)-1H-indol-5-yl)nicotinamide] | 33.3 nM |  |  |  |  |  |  | 23.4 nM
15 | CC(C)(C)C(=O)NCc1ccc(Cl)c(C(=O)Nc2ccc3oc(-c4ccc(C(F)(F)F)cc4)nc3c2)c1 [Example 22, 2-Chloro-5-((2,2-dimethylpropanoylamino)methyl)-N-(2-(4-(trifluoromethyl)phenyl)benzo[d]oxazol-5-yl)benzamide] | 38.8 nM |  |  |  |  |  |  | 6.69 nM
